Assay results taken from PMC8566089 (Bioorganic Chemistry, 2021).
Where two headings read alike, the source gives them in different places.

Assays:
[1] = test system: A431 (squamous skin) cancer cell line; experiment: MTT antiproliferative assay, A431; format: cell-based; settings: for IC50: Homo sapiens, A-431, 72 h, read-out: IC50 ± SE, A431; for SI (selectivity index), A431: IC50 of RPE1 relative to that of A431
[2] = test system: MCF7 (breast) cancer cell line; experiment: MTT antiproliferative assay, MCF7; format: cell-based; settings: for IC50: Homo sapiens, MCF7, 72 h, read-out: IC50 ± SE, MCF7; for SI (selectivity index), MCF7: IC50 of RPE1 relative to that of MCF7
[3] = test system: HCT116 (colon) cancer cell line; experiment: MTT antiproliferative assay, HCT116; format: cell-based; settings: for IC50: Homo sapiens, HCT-116, 72 h, read-out: IC50 ± SE, HCT116; for SI (selectivity index), HCT116: IC50 of RPE1 relative to that of HCT116
[4] = test system: RPE1 (normal human immortalized retinal pigment epithelial cell line); experiment: MTT assay against normal RPE1 cells; format: cell-based; settings: RPE-1, read-out: IC50 ± SE, RPE1
VEGFR-2 [5] = target: T1, VEGFR-2 (Homo sapiens, UniProt P35968); experiment: VEGFR-2 Western blot in MCF7; format: cell-based; settings: for VEGFR2 MCF7 % Inhibition: Western blot at MTT-IC50; for VEGFR2 MCF7 RQ (relative quantification): Western blot at MTT-IC50, control RQ 3.725
VEGFR-2 [6] = target: T1, VEGFR-2; experiment: VEGFR-2 Western blot in HCT116; format: cell-based; settings: for VEGFR2 HCT116 % Inhibition: Western blot at MTT-IC50; for VEGFR2 HCT116 RQ (relative quantification): Western blot at MTT-IC50, control RQ 3.817
EGFR [7] = target: T2, EGFR (Homo sapiens, UniProt P00533); experiment: EGFR Western blot in MCF7; format: cell-based; settings: for EGFR MCF7 % Inhibition: Western blot at MTT-IC50; for EGFR MCF7 RQ (relative quantification): Western blot at MTT-IC50, control RQ 4.226
EGFR [8] = target: T2, EGFR; experiment: EGFR Western blot in HCT116; format: cell-based; settings: for EGFR HCT116 % Inhibition: Western blot at MTT-IC50; for EGFR HCT116 RQ (relative quantification): Western blot at MTT-IC50, control RQ 4.0382
COX-1 = target: T3, COX-1 (Ovis aries, UniProt P05979); experiment: COX-1 inhibitor screening kit; format: biochemical
T3 sequence (P05979 25-600): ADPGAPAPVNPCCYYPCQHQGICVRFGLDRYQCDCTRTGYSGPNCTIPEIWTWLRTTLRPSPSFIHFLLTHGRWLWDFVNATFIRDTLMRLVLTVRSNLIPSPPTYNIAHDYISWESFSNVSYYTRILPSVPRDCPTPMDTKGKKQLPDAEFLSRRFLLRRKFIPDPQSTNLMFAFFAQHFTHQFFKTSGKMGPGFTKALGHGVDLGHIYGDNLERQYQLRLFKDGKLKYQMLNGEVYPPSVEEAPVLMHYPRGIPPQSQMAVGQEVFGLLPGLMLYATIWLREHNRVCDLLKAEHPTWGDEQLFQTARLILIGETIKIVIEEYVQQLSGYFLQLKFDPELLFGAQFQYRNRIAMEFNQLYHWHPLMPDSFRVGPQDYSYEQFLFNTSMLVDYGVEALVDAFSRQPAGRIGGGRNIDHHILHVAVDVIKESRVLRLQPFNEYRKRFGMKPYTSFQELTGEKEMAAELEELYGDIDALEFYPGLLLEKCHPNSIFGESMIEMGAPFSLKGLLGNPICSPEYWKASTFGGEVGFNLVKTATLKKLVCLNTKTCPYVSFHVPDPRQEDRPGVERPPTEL

COX-2 = target: T4, COX-2 (Homo sapiens, UniProt P35354); experiment: COX-2 inhibitor screening kit; format: biochemical
T4 sequence (P35354 18-604): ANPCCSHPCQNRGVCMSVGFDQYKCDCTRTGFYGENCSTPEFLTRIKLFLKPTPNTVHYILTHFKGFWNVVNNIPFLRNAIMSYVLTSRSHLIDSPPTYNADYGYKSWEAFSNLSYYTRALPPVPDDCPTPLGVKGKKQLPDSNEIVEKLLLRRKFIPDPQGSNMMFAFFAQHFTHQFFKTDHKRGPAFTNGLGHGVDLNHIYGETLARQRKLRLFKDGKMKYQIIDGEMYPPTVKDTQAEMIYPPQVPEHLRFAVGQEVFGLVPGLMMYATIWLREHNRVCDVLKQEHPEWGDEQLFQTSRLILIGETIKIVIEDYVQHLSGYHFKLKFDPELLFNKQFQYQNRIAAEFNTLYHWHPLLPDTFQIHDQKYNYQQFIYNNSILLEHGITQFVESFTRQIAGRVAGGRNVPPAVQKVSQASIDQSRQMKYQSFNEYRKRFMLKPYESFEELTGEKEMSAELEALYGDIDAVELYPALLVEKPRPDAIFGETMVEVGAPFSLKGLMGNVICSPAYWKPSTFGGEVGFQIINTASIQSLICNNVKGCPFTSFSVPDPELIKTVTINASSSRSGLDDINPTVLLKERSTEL

[9] = test system: SARS-CoV-2 (hCoV-19/Egypt/NRC-03/2020); settings: SARS-CoV-2 / VERO-E6

T1 sequence (P35968 20-1356): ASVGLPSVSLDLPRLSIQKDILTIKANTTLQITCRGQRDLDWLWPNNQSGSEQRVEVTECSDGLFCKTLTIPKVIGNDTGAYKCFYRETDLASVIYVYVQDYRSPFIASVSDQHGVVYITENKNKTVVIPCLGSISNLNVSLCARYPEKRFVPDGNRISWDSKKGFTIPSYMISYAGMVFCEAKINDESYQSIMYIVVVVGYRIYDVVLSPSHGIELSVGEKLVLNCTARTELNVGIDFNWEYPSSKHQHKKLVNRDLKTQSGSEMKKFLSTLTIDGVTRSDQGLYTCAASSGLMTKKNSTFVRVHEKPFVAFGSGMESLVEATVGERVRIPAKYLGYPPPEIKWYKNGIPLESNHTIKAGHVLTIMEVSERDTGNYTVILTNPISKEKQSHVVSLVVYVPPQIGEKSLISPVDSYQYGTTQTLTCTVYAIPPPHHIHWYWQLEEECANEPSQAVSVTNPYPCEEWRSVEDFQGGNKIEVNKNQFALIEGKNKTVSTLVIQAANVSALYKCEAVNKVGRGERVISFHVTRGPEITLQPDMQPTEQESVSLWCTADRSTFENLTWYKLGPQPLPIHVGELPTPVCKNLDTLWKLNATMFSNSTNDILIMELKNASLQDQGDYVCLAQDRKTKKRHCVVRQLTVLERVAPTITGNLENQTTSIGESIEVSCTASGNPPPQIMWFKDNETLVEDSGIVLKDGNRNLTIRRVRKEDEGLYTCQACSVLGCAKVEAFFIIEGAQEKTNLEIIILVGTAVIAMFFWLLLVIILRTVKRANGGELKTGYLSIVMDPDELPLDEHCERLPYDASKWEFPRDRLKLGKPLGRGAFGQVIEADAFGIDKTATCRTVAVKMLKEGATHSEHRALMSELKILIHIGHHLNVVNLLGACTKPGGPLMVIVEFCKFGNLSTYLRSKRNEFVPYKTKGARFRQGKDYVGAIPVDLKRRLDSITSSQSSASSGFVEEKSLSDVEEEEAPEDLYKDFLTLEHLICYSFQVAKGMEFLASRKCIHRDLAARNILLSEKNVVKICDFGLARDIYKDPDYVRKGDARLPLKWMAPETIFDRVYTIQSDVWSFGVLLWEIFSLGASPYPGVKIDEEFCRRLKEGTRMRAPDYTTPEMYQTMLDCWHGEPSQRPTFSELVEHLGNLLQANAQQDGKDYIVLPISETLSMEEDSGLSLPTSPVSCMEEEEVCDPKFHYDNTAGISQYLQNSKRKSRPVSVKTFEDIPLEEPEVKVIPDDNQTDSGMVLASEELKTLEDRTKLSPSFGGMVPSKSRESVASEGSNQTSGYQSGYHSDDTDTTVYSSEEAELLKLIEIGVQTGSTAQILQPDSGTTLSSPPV
T2 sequence (P00533 25-1210): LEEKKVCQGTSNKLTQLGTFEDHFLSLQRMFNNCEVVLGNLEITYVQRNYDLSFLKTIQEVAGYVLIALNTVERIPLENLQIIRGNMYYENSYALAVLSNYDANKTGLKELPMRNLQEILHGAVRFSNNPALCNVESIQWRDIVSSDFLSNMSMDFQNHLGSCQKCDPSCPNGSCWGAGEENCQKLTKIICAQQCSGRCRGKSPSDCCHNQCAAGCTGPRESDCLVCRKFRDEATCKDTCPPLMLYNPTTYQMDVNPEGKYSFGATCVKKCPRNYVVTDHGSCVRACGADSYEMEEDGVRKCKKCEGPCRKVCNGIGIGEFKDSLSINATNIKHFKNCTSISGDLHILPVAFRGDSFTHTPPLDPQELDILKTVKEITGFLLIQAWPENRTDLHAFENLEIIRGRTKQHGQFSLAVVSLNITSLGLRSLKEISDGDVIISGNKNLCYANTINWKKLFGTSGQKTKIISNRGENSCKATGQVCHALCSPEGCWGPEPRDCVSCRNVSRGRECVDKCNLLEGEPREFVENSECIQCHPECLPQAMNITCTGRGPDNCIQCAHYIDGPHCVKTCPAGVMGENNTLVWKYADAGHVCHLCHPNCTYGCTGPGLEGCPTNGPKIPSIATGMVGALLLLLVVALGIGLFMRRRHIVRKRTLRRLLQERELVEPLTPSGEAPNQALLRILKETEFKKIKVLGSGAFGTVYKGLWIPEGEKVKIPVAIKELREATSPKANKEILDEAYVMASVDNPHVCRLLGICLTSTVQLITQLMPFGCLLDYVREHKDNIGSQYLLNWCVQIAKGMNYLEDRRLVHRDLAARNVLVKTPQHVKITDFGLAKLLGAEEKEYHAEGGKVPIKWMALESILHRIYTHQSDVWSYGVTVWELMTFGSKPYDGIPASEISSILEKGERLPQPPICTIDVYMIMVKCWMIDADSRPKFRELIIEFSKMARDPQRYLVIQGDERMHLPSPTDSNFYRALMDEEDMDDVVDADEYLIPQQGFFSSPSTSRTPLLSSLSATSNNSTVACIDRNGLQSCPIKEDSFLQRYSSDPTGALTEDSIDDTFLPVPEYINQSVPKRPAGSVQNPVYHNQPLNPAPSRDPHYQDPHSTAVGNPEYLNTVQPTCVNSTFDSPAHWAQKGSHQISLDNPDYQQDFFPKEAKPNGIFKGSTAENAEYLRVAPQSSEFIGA

| SMILES | IC50 [1] [nM] | SI (selectivity index), A431 [1] | IC50 [2] [nM] | SI (selectivity index), MCF7 [2] | IC50 [3] [nM] | SI (selectivity index), HCT116 [3] | IC50 [4] [nM] | VEGFR2 MCF7 % Inhibition (VEGFR-2 [5]) [%] | VEGFR2 MCF7 RQ (relative quantification) (VEGFR-2 [5]) | VEGFR2 HCT116 % Inhibition (VEGFR-2 [6]) [%] | VEGFR2 HCT116 RQ (relative quantification) (VEGFR-2 [6]) | EGFR MCF7 % Inhibition (EGFR [7]) [%] | EGFR MCF7 RQ (relative quantification) (EGFR [7]) | EGFR HCT116 % Inhibition (EGFR [8]) [%] | EGFR HCT116 RQ (relative quantification) (EGFR [8]) | IC50 (COX-1) [nM] | IC50 (COX-2) [nM] | SI = IC50(COX-1)/IC50(COX-2) (COX-2) | SI = CC50/IC50 [9] | SI = IC50(COX-1)/IC50(COX-2) (COX-2; listed as 5 m) |
| --- | --- | --- | --- | --- | --- | --- | --- | --- | --- | --- | --- | --- | --- | --- | --- | --- | --- | --- | --- | --- |
| COc1cc(/C=C2\CN(C(=O)c3ccccc3OC(C)=O)C/C(=C\c3cc(OC)c(OC)c(OC)c3)C2=O)cc(OC)c1OC [Compound 5h, 2-[4-Oxo-3,5-bis((E)-3,4,5-trimethoxybenzylidene)piperidine-1-carbonyl]phenyl acetate] | 472 ± 20 | 18.3 | 3990 ± 360 | 2.16 | 1330 ± 90 | 6.47 | 8620 ± 720 | 45.4 | 2.032 | 37.2 | 2.398 | 58.9 | 1.737 | 57.9 | 1.698 | 147 | 438 | 0.336 | 35.0 | – |
| COc1ccc(/C=C2\CN(C(=O)c3cc(Cl)ccc3OC(C)=O)C/C(=C\c3ccc(OC)cc3)C2=O)cc1 [Compound 5m, 2-[3,5-Bis((E)-4-methoxybenzylidene)-4-oxopiperidine-1-carbonyl]-4-chlorophenyl acetate] | 3810 ± 290 | 1.9 | 5060 ± 450 | 1.43 | 5940 ± 460 | 1.22 | 7230 ± 510 | 47.2 | 1.966 | 70.4 | 1.13 | 62.4 | 1.59 | 68.5 | 1.273 | 146 | 319 | 0.452–0.467 | 138.7 | 0.458 |
| COc1ccc(/C=C2\CN(C(=O)c3ccccc3OC(C)=O)C/C(=C\c3ccc(OC)c(OC)c3)C2=O)cc1OC [Compound 5g, 2-[3,5-Bis((E)-3,4-dimethoxybenzylidene)-4-oxopiperidine-1-carbonyl]phenyl acetate] | 973 ± 70 | 10.6 | 4970 ± 420 | 2.08 | 2390 ± 210 | 4.32 | 10300 ± 1100 | 37.6 | 2.324 | 37.3 | 2.393 | 61.2 | 1.638 | 61.5 | 1.554 | 262 | 2180 | 0.120 | 57.5 | – |
| COc1ccc(/C=C2\CN(C(=O)c3ccccc3OC(C)=O)C/C(=C\c3ccc(OC)cc3)C2=O)cc1 [Compound 5f, 2-[3,5-Bis((E)-4-methoxybenzylidene)-4-oxopiperidine-1-carbonyl]phenyl acetate] | 6040 ± 620 | 1.6 | 5380 ± 510 | 1.84 | 6080 ± 490 | 1.63 | 9890 ± 660 | 58.1 | 1.56 | 64.1 | 1.37 | 76.3 | 1 | 62.5 | 1.516 | 147 | 315 | 0.467 | 1.2 | – |
| O=c1[nH]cc(F)c(=O)[nH]1 [Compound 5-FU, 5-fluorouracil, reference compound] | – | – | – | – | – | – | – | 67.2 | – | 75.4 | – | 85.8 | – | 81.2 | – | – | – | – | – | – |
| CCN(CCO)CCCC(C)Nc1ccnc2cc(Cl)ccc12 (stereo not drawn) [Hydroxychloroquine, reference compound] | – | – | – | – | – | – | – | – | – | – | – | – | – | – | – | – | – | – | 9.7 | – |
| CC(=O)Oc1ccccc1C(=O)N1C/C(=C\c2ccc(C)cc2)C(=O)/C(=C/c2ccc(C)cc2)C1 [Compound 5e, 2-[3,5-Bis((E)-4-methylbenzylidene)-4-oxopiperidine-1-carbonyl]phenyl acetate] | 639 ± 70 | 15.5 | 6000 ± 500 | 1.65 | 2560 ± 180 | 3.87 | 9890 ± 750 | 40.9 | 2.202 | 42.1 | 2.209 | 59.6 | 1.707 | 58.8 | 1.664 | 249 | 1560 | 0.160 | 37.4 | – |
| CCN(CC)CCCC(C)Nc1ccnc2cc(Cl)ccc12 (stereo not drawn) [Chloroquine, reference compound] | – | – | – | – | – | – | – | – | – | – | – | – | – | – | – | – | – | – | 15.1 | – |
